Assay results: patent US20250255847A1, “[…]s: Novel Drugs for Triple Negative Breast Cancer” (SIMMARON RSEARCH INC, priority 2024, published 2025)

Tested on: MDA-MB-468 TNBC cells
Test: Annexin V / propidium iodide dual labeling in MDA-MB-468 cells
Assay type: cell-based, human
Settings: 24 hrs; for membrane labeling of Annexin V and nuclear staining of PI: increasing doses
Procedure: FIG. 11 illustrates an embodiment of the present invention and illustrates SIM-1 and SIM-2 induced apoptosis in MDA-MB-468 TNBC cells, but not HMEC control cells. MDA-MB-468 cells were treated with increasing doses of (A) SIM-1 and (B) SIM-2 for 48 hrs followed by lactate dehydrogenase (LDH) release assay in the supernatants. The result was offset with cell-bound LDH and presented as a percent of DMSO control as discussed under method section. Half-maximal cytotoxicity or CT50 analyses were performed plotting maximum response as an index of increasing doses of (C) SIM-1 and (D) SIM-2. AnnexinV (green) and propidium iodide (red) dual-labeling were performed to evaluate apoptotic response in MDA-MB-468 cells once treated with increasing doses of (E) SIM-1 and (F) SIM-2 for 24 hrs. Nuclei were stained with DAPI. TUNEL assay was performed in MDA-MB-468 cells after treatment with 25 nM of (G) SIM-1. Brown-colored TUNEL bodies were visualized at cresyl violet-stained blue nuclei. (H) The number of TUNEL bodies were counted as a percent of 100 cresyl violet-stained blue cells. Ten independent images were counted for the quantification study. Similarly, SIM-2 was assessed for (I) TUNEL and (J) subsequent quantification analyses. One-way ANOVA was performed to test the significance of mean between groups at **p<0.01 and ****p<0.0001. (K) LDH release assay was performed in non-tumor origin human mammary epithelial cells (HMEC) once treated with increasing doses of SIM-1 and SIM-2 for 48 hrs. Ns=no significance. (L) Annexin V (green) and propidium iodide (red) staining was performed in 25 nM SIM-1- and SIM-2-treated HMEC cells. Nuclei were stained with DAPI. Results are confirmed after three different experiments.
Annexin V/PI Dual Staining Protocol. Annexin V/PI Dual Staining was performed as per manufacturer's instruction (Cat #: 2752665; Vendor: Thermo Fisher Scientific). Chamber slides of MDA-MB-468 cells in serum-free media were treated with SIMPYRA-1 and SIMPYRA-2 at doses of 2 nM, 5 nM, 10 nM, […] 50 nM for 24 hours at 37° C. Each well was washed with 1×PBS, then treated with 1× annexin-binding buffer, 100 ug/mL PI solution, and Annexin V solution. Chamber slides were incubated in the dark at room temperature for 2 hours. Each well was washed twice with 1×PBS and once with 1:500 dilution of DAPI in 1×PBS. Cells were imaged using CaptaVision+™ Software.
This example provides a representative experiment that studies if SIM-1 and SIM-2 promoted the death of TNBC cells. […] During apoptosis, phosphatidyl serine of the plasma membrane flips from the inner to the outer membrane which can be detected by Annexin V labeling, whereas PI stains the nucleus of a cell with compromised integrity of the plasma membrane. […]

Structure (SMILES) | concentration of maximum Annexin V / PI labeling [nM] | membrane labeling of Annexin V and nuclear staining of PI
O=C(O)CCC(=O)NCc1csc2ccc(Cl)cc12 [SIM-1, 4-[(5-chloro-1-benzothiophen-3-yl)methylamino]-4-oxobutanoic acid] | 25 | dose-dependently increased
CCOC(=O)c1c(NC(C)=O)sc2c(Cl)c(/C=N/O)ccc12 [SIM-2, ethyl 2-acetamido-7-chloro-6-(hydroxyiminomethyl)-1-benzothiophene-3-carboxylate] | 25 | dose-dependently increased
